# Experimental data taken from PMC10223284, “Category-Based Toxicokinetic Evaluations of Data-Poor Per- and Polyfluoroalkyl Substances (PFAS) using Gas Chromatography Coupled with Mass Spectrometry” (Toxics, 2023).
# Values joined by “and” are separate entries in the source; they are usually repeats but may differ in a detail not shown here. Equal values may be shown once. Read-outs that look alike come from different tables or passages of the source.
# Tests used:
# [1] = Hepatic metabolic stability (hepatocyte clearance) assay, substrate depletion; type: in vitro ADME, human; settings: both sexes, human, s9, Clint.1.Med
# From the text: (§1) William’s Medium E (Gibco A1217601), dexamethasone, and cell maintenance cocktail B (Gibco CM4000) were obtained from Thermo Fisher Scientific (Waltham, MA, USA). Hepatosure OptiThaw media (P/N K8000; Lot No. 18–1–0322) was obtained from Sekisui Xenotech (Kansas City, KS, USA). Trypan blue solution (P/N 1450021) was obtained from Bio-Rad (Hercules, CA, USA). Pooled human cryopreserved primary hepatocyte suspensions were obtained from BioIVT (Westbury, NY, USA) and produced using nontransplantable tissue. The human 50-donor pool (mixed gender; Cat X0080005; Lot MYC), selected from BioIVT’s commercially available, prepooled lots, was selected following review of vendor-generated metabolic characterization information. Pooled, mixed-sex human plasma from de-identified donors was obtained from a commercial vendor that operates a U.S. Food and Drug Administration-licensed and inspected donor center (BioIVT bioivt.com (accessed 12 May 2023). Donors comprised five males and five females and ranged from 20 to 50 years of age. Plasma collected using anticoagulant K2EDTA was sterile-filtered ([…]) and stored at <−70 °C until use.
# (§2) The hepatic metabolic stability assay measures the loss of a parent compound over time in a substrate-depletion approach. Briefly, hepatocyte suspensions, after a viability assessment, were diluted in complete William’s medium E (containing dexamethasone and cell maintenance cocktail B) prior to addition to 96-well polypropylene plates containing an equal volume of media spiked with the test compound (1 μM assay concentration; assay cell density = 50,000 cells/100 μL) and maintained at 37 °C with shaking. At each time point, relevant plates were crashed with an equal volume of ice-cold acetonitrile, centrifuged, and supernatant transferred to a new plate prior to storage at <−70 °C until quantitative analysis. Controls, run in parallel, included cell-free (i.e., media only) and metabolically inactivated hepatocytes to evaluate abiotic chemical stability in the aqueous media matrix with and without cellular protein. In preliminary runs, these controls were run at T0 and T240 only. If significant instability was noted, the hepatocyte clearance assay was rerun, including cell-free samples at each time point and metabolically inactivated hepatocytes at selected time points.
# (§3) To process samples for quantitative analysis, samples were thawed and mixed. An aliquot of sample was removed and diluted in acetonitrile (1 part sample plus 9 parts acetonitrile) containing the relevant ISs selected for the PFAS being analyzed (See Table S2). The target at instrument concentration of each IS was 10 pg/μL.
# (§4) The curves were generated using concentration/response ratios from the target analyte and IS, with either linear or quadratic regression models. The model and weighting, if necessary, were chosen to most accurately reflect the response of each compound and was evaluated by recalculating the individual calibration points using the curve. An acceptable model reflected an accuracy of ±30% of the theoretical value.
# (§5) Hepatic metabolic clearance data were plotted in semi-log format (ln concentration vs. time) with three replicates at each time point, as previously described. […] The equations described below are used to calculate the chemical half-life (T½) and intrinsic in vitro clearance (Clin vitro) with units of μL/(min × million hepatocytes). In Equation (3), 2000 is a scalar used to adjust the assay cell number up to be consistent with units of 1 million cells in the Clint equation.
# (§6) Negative controls, including media only and metabolically inactivated hepatocyte controls, were included to monitor abiotic loss (i.e., background clearance) during the assay. Where significant compound loss occurred using the analysis described above, background clearance rates were calculated and used to background-adjust hepatic metabolic clearance rates. […]
# [2] = system: pooled human cryopreserved primary hepatocyte suspensions; assay: as above; type: in vitro ADME; settings: for Bkgd-Sub Clearance (µL/min/106 hepatocytes): background-subtracted; for Concentration (nM), Time 0 min / Concentration (nM), Time 15 min / Concentration (nM), Time 30 min / Concentration (nM), Time 60 min / Concentration (nM), Time 120 min / Concentration (nM), Time 240 min: hepatocyte incubation, Rep 1-3, start conc 1000 nM; for Linear Regression Results, Best-Fit Values, Slope / Linear Regression Results, Best-Fit Values, Clearance / Linear Regression Results, Best-Fit Values, Half Life: hepatocyte time course; for Linear Regression Results, Best-Fit Values, Clearance / Linear Regression Results, Best-Fit Values, Half Life: NS = slope not significant
# From the text: as §1, §2, §3, §4, §5, §6
# [3] = Abiotic loss in negative controls of the hepatocyte clearance assay (cell-free media, metabolically inactivated hepatocytes); type: in vitro ADME; settings: for Hep_Stab_Fail: flag for stability failure in hepatocyte clearance assay controls (1 or Fst = fail, 0 = pass); for HT BkgdCl, Half Life / HT BkgdCl, Slope: heat treated hepatocytes control; for HT BkgdCl, Half Life / HT BkgdCl, Slope / No Cells BkgdCl, Half Life / No Cells BkgdCl, Slope: 0 vs 240 min; for Negative Controls, Heat Treated (HT), concentration at 0 min / Negative Controls, Heat Treated (HT), concentration at 240 min: heat treated hepatocytes; for Negative Controls, Heat Treated (HT), concentration at 0 min / Negative Controls, Heat Treated (HT), concentration at 240 min / Negative Controls, No cells (NC), concentration at 0 min / Negative Controls, No cells (NC), concentration at 240 min: Rep 1-3; for No Cells BkgdCl, Half Life / No Cells BkgdCl, Slope: no cells control
# Procedure, shortened: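 Abiotic stability was checked with media-only and inactivated-hepatocyte controls, run at T0 and T240 or, on rerun, at more time points. Compound at 1 μM, 37 °C, acetonitrile quench. Loss rates served for background subtraction, and ≥50% loss by T120 meant exclusion.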
# [4] = In vitro-in vivo extrapolation (IVIVE) to Css and administered equivalent dose (AED); design: species or system human; settings: for Clhep: IVIVE, hepatocyte Clint scaled to whole-liver clearance; for AED: administered equivalent dose from LOEC and Css; for Fub: fub=fup/(B:P), Fub set to 1 if needed; for CLint: scaled with HPGL 110 mill cells/g, Vl 1596 g
# Method: Using the experimentally generated PPB (fraction unbound in plasma, fup) and hepatic Clint data, IVIVE was performed as previously described to calculate human steady-state plasma concentrations (Css). Briefly, experimental measures of fup are adjusted using blood:plasma partitioning information to estimate the fraction unbound in blood (fub). Experimental hepatocyte Clint data are scaled up to represent whole-liver clearance (L/h). […] Once estimated, these Css values are considered in conjunction with published in vitro bioactivity concentrations (i.e., lowest-observed effective concentrations, or LOECs) to calculate AEDs (Table 2). See Table S10 for all relevant IVIVE inputs, scalars, calculations, and outputs.
# human primary cells = settings: cited from earlier work
# human plasma [5] = assay: Chemical stability in plasma over the UC assay time course (T5hr/T1hr); settings: for PPB_Stab_Fail: flag for stability failure in the plasma protein binding assay (1 = fail, 0 = pass); for Mean Stability: mean T5hr/T1hr ratio over all replicates and runs, plasma; for Stability (T5hr/ T1hr), replicates A, B, C: single replicate of one UC run
# human plasma [6] = assay: Ultracentrifugation (UC) plasma protein binding assay, fraction unbound in plasma (fup); settings: for Fraction Unbound (fu), Run-specific Avg: average of one UC run (run date in line above); for Mean fu: fraction unbound in human plasma, some values based on eLOQ; for Mean fu / fup: ultracentrifugation; for fup: 10 μM, 37 °C; for Fraction Unbound (fu), replicates A, B, C: single replicate of one UC run (aqueous fraction / Time 5 hr)
# human plasma [7] = settings: human, plasma
# [8] = Assuming 1 mg/kg/day dose rate, BW 70 kg
# [9] = human steady-state plasma concentration, assuming 1 mg/kg/day dosage
# [10] = BioSeek lowest-observed effect concentration used for AED
# [11] = minimum lowest-observed effect concentration, BioSeek platform
molecule,measurement,setting,value
"CCNc1nc(NC(C)C)nc(SC)n1 [Ametryn, reference compound]",hepatocyte CLint at 1 μM,[1],14.7 µL/min/1e6 cells
OCC(F)(F)C(F)(F)C(F)(F)CO [Hexafluoroamylene glycol],Bkgd-Sub Clearance (µL/min/106 hepatocytes),[2],0.00 µL/min/106 hepatocytes
same,"Concentration (nM), Time 0 min",[2],904.289 nM and 891.557 nM and 657.581 nM
same,"Concentration (nM), Time 15 min",[2],889.716 nM and 801.576 nM and 938.868 nM
same,"Concentration (nM), Time 30 min",[2],774.463 nM and 733.048 nM and 756.418 nM
same,"Concentration (nM), Time 60 min",[2],901.107 nM and 929.789 nM and 820.604 nM
same,"Concentration (nM), Time 120 min",[2],865.693 nM and 807.871 nM and 671.853 nM
same,"Concentration (nM), Time 240 min",[2],674.351 nM and 611.715 nM and 490.915 nM
same,"Linear Regression Results, Best-Fit Values, Slope",[2],-0.001398
same,"Linear Regression Results, Best-Fit Values, Clearance",[2],2.796
same,"Linear Regression Results, Best-Fit Values, Half Life",[2],495.708
same,clearance rate in hepatocytes,"[2]; human hepatocyte suspensions, values as rounded or worded in text",no clearance
same,Hep_Stab_Fail,[3],0
same,"HT BkgdCl, Half Life",[3],329.06
same,"HT BkgdCl, Slope",[3],-0.002106
same,"Negative Controls, Heat Treated (HT), concentration at 0 min",[3],941.377 nM and 735.79 nM and 794.754 nM
same,"Negative Controls, Heat Treated (HT), concentration at 240 min",[3],487.17 nM and 595.696 nM and 416.449 nM
same,"No Cells BkgdCl, Half Life",[3],490.099
same,"No Cells BkgdCl, Slope",[3],-0.001414
same,"Negative Controls, No cells (NC), concentration at 0 min",[3],830.122 nM and 683.027 nM and 707.501 nM
same,"Negative Controls, No cells (NC), concentration at 240 min",[3],479.464 nM and 568.092 nM and 532.117 nM
same,Css,[4]; [8],0.44 mg/L and 2.07 uM
same,Clhep,[4],0.000 L/h
same,AED,[4],0.9667 mg/kg/day
same,Fub,[4],1
same,Css,[4]; [9],2.07 µM
same,Css,"[4]; human steady-state plasma concentration, assuming 1 mg/kg/day dosage, listed as hexafluoroamylene glycol",2.1 to 2.7 µM
same,CLint,[4],0 µL/min
same,LOEC,human primary cells; [10],2.00 µM
same,LOEC,human primary cells; [11],2 µM
same,PPB_Stab_Fail,human plasma [5],0
same,Mean Stability,human plasma [5],0.996
same,"Stability (T5hr/ T1hr), replicates A, B, C",human plasma [5],1.079 and 0.9916 and 0.917
same,"Fraction Unbound (fu), Run-specific Avg",human plasma [6],0.68
same,Mean fu,human plasma [6],0.6770
same,fup,human plasma [6]; human plasma,0.6770
same,fup,"human plasma [6]; human plasma, listed as hexafluoroamylene glycol",0.68
same,"Fraction Unbound (fu), replicates A, B, C",human plasma [6],0.6223 and 0.7422 and 0.6663
C=CC(=O)OCCC(F)(F)C(F)(F)C(F)(F)C(F)(F)C(F)(F)C(F)(F)C(F)(F)C(F)(F)F [8:2 Fluorotelomer acrylate],Hep_Stab_Fail,[3],1
same,% remaining_PPB,human plasma [7],0%
same,PPB_Stab_Fail,human plasma [7],1
"3-(Perfluoro-2-butyl) propane-1,2-diol",Clint.1.Med,"[2]; Bayesian analysis median, 1 μM assay concentration (Table S9)",4.6
same,Bkgd-Sub Clearance (µL/min/106 hepatocytes),[2],5.876 µL/min/106 hepatocytes
same,Unadj Clint,"[2]; hepatocyte clearance, Conc 1000 nM, not background adjusted",8.61
same,"Concentration (nM), Time 0 min",[2],880.591 nM and 1037.48 nM and 1054.86 nM
same,"Concentration (nM), Time 15 min",[2],858.26 nM and 1099.86 nM and 993.717 nM
same,"Concentration (nM), Time 30 min",[2],742.136 nM and 974.371 nM and 915.81 nM
same,"Concentration (nM), Time 60 min",[2],904.196 nM and 908.986 nM and 744.943 nM
same,"Concentration (nM), Time 120 min",[2],623.052 nM and 608.094 nM and 642.654 nM
same,"Concentration (nM), Time 240 min",[2],400.866 nM and 351.17 nM and 326.466 nM
same,"Linear Regression Results, Best-Fit Values, Slope",[2],-0.004305
same,"Linear Regression Results, Best-Fit Values, Clearance",[2],8.61
same,"Linear Regression Results, Best-Fit Values, Half Life",[2],160.976
same,In Vitro Clint,"[2]; pooled human hepatocyte suspensions, 1 μM",5.88 μL/min/10^6 cells
same,Unadj in vitro Clint,[2]; unadjusted hepatocyte intrinsic clearance,8.61
same,Hep_Stab_Fail,[3],0
same,"HT BkgdCl, Half Life",[3],285.42
same,"HT BkgdCl, Slope",[3],-0.002428
same,"Negative Controls, Heat Treated (HT), concentration at 0 min",[3],1083.95 nM and 2011.47 nM and 1037.82 nM
same,"Negative Controls, Heat Treated (HT), concentration at 240 min",[3],725.383 nM and 763.18 nM and 711.759 nM
same,"No Cells BkgdCl, Half Life",[3],506.95
same,"No Cells BkgdCl, Slope",[3],-0.001367
same,"Negative Controls, No cells (NC), concentration at 0 min",[3],1136.56 nM and 1061.97 nM
same,"Negative Controls, No cells (NC), concentration at 240 min",[3],792.448 nM and 800.439 nM and 781.338 nM
same,Css,[4]; [8],0.09 mg/L and 0.30 uM
same,Clhep,[4],28.460 L/h
same,AED,[4],6.5951 mg/kg/day
same,Fub,[4],0.672
same,Css,[4]; [9],0.30 µM
same,CLint,[4],1032293 µL/min
same,LOEC,human primary cells; [10],2.00 µM
same,LOEC,human primary cells; [11],2 µM
same,"Stability (T5hr/ T1hr), Run-specific Avg",human plasma [5]; average of one UC run (run date in line above),0.962
same,PPB_Stab_Fail,human plasma [5],0
same,Mean Stability,human plasma [5],0.965
same,Fstable.Med,"human plasma [5]; median fraction stable in plasma, UC assay Level4",0.232
same,"Stability (T5hr/ T1hr), replicates A, B, C",human plasma [5],0.883 and 0.994 and 1.018
same,"Fraction Unbound (fu), Run-specific Avg",human plasma [6],0.37
same,Mean fu,human plasma [6],0.3696
same,fup,human plasma [6]; human plasma,0.3696
same,Mean Fu,"human plasma [6]; mean fraction unbound over all replicates and runs, UC assay, human plasma",0.370
same,Fup.Med,"human plasma [6]; median fraction unbound in plasma, UC assay Level4",0.364
same,Fup.point,"human plasma [6]; point estimate of fraction unbound in plasma, UC assay Level4",0.37
same,"Fraction Unbound (fu), replicates A, B, C",human plasma [6],0.349 and 0.339 and 0.421
